“And” between values parts separate entries of the source, which are not always exact repeats. Equal values may be shown once.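 A five-concentration, 48-hour dose response in 96-well plates underlies each endpoint, interpolated linearly between surrounding concentrations. GI50 = concentration required for 50% inhibition of growth. The concentration for full growth arrest is given as TGI.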

The subject of one assay is TK-10 renal. In words: growth of human tumour cells (NCI), 48 h.
With `COc1cc2ccc(/C=C\[N+](=O)[O-])cc2cc1OC`, the TGI was found to be 9.01 µM.

As for `CCN(CC)CCCC(C)Nc1ccnc2cc(Oc3ccccc3)ccc12` (stereo not given), the GI50 is 2.58 µM and 3.23 µM; the TGI was 8.34 µM and 10.3 µM.

Turning to `C=C1CCC2C3(C)COC(c4ccc(N(C)C)cc4)OC3CCC2(C)C1C/C=C1/C(=O)OCC1O` (stereo not given), the GI50 was 8 µM and the TGI came out at 21 µM.

`COc1cc(OC(=O)c2ccccc2)cc2c1C(=O)C=CC2=O`: the TGI was 32.5 µM.

`CCN(CC)CCCCNc1c2ccccc2[n+](C)c2c1[nH]c1ccccc12`: the GI50 is 2.52 µM and the TGI is 12.6 µM.

In the case of `COc1cc(NC(C)CCCNC2CN3CCC2CC3)c2ncccc2c1` (stereo not given), the GI50 is 16.6 µM and the TGI turned out to be 31 µM.

On to `COc1ccc(C(=O)c2cc(OC)c(OC)c(OC)c2)cc1OC(=O)CCl`, for which the GI50 is 19.4 µM and the TGI is greater than 100 µM.

Turning to `CN[C@@H](C)C(=O)N[C@H](C(=O)N1CCC[C@H]1C(=O)Nc1snnc1-c1ccccc1)C1CCCCC1`, the GI50 was greater than 59.9 µM and the TGI is greater than 94.9 µM.

Regarding `COc1ccc(/C(COc2ccc3c(=O)cc(-c4ccccc4)oc3c2)=N\O)cc1`, the GI50 was 10.7 µM and the TGI is 28.1 µM.

On to `CC(C)(C)OC(=O)N1CCN(CCn2cc(C(F)(F)F)c3c(Cl)ncnc32)CC1`, for which the GI50 was 19.7 µM and the TGI came to 42.8 µM.

As for `FC(F)(F)c1ccc(Nc2nc(-c3c(C(F)(F)F)nc4ccccn34)cs2)cc1`, the GI50 was 0.917 µM and the TGI was found to be 8.12 µM.

As for `CN(C)CCN1C(=O)c2ccccc2N(C)c2ccccc21`, the GI50 is greater than 100 µM and the TGI was greater than 100 µM.

For the next assay, the system named is RXF 393 renal. Put plainly: growth of human tumour cells (NCI), 48 h.
For `COc1cc2ccc(/C=C\[N+](=O)[O-])cc2cc1OC`, the TGI was 3.51 µM.

For `CCN(CC)CCCC(C)Nc1ccnc2cc(Oc3ccccc3)ccc12` (stereo not given), the GI50 is 1.65 µM and 3.53 µM; the TGI is 5.82 µM and 11.2 µM.

Take `C=C1CCC2C3(C)COC(c4ccc(N(C)C)cc4)OC3CCC2(C)C1C/C=C1/C(=O)OCC1O` (stereo not given): the GI50 was 1.97 µM and the TGI is 4.06 µM.

`COc1cc(OC(=O)c2ccccc2)cc2c1C(=O)C=CC2=O` had a TGI of 24.6 µM.

For the compound `CCN(CC)CCCCNc1c2ccccc2[n+](C)c2c1[nH]c1ccccc12`, the GI50 was 0.402 µM and the TGI stood at 2.16 µM.

As for `COc1cc(NC(C)CCCNC2CN3CCC2CC3)c2ncccc2c1` (stereo not given), the GI50 was 3.44 µM and the TGI came to 15.4 µM.

Turning to `COc1ccc(C(=O)c2cc(OC)c(OC)c(OC)c2)cc1OC(=O)CCl`, the GI50 was 0.0441 µM and the TGI was greater than 100 µM.

Take `CN[C@@H](C)C(=O)N[C@H](C(=O)N1CCC[C@H]1C(=O)Nc1snnc1-c1ccccc1)C1CCCCC1`: the GI50 is 5.18 µM and the TGI came to 40.1 µM.

Consider `COc1ccc(/C(COc2ccc3c(=O)cc(-c4ccccc4)oc3c2)=N\O)cc1`, for which the GI50 was 15.8 µM and the TGI was greater than 50 µM.

Regarding `CC(C)(C)OC(=O)N1CCN(CCn2cc(C(F)(F)F)c3c(Cl)ncnc32)CC1`, the GI50 is 3.43 µM and the TGI is 14.4 µM.

For `FC(F)(F)c1ccc(Nc2nc(-c3c(C(F)(F)F)nc4ccccn34)cs2)cc1`, the GI50 is 0.0389 µM and the TGI came to 0.316 µM.

On to `CN(C)CCN1C(=O)c2ccccc2N(C)c2ccccc21`, for which the GI50 was greater than 100 µM and the TGI was greater than 100 µM.

Another assay concerns SK-MEL-5 melanoma. Put plainly: growth of human tumour cells (NCI), 48 h.
With `COc1cc2ccc(/C=C\[N+](=O)[O-])cc2cc1OC`, the TGI worked out at 17.5 µM.

Regarding `CCN(CC)CCCC(C)Nc1ccnc2cc(Oc3ccccc3)ccc12` (stereo not given), the GI50 is 1690 nM and 1800 nM; the TGI was 3.22 µM and 3.37 µM.

For the compound `C=C1CCC2C3(C)COC(c4ccc(N(C)C)cc4)OC3CCC2(C)C1C/C=C1/C(=O)OCC1O` (stereo not given), the GI50 was 7200 nM and the TGI stood at 20.3 µM.

On to `COc1cc(OC(=O)c2ccccc2)cc2c1C(=O)C=CC2=O`, for which the TGI is 30.6 µM.

Consider `CCN(CC)CCCCNc1c2ccccc2[n+](C)c2c1[nH]c1ccccc12`, for which the GI50 was 283 nM and the TGI was found to be 0.976 µM.

Turning to `COc1cc(NC(C)CCCNC2CN3CCC2CC3)c2ncccc2c1` (stereo not given), the GI50 was 2230 nM and the TGI is 5.6 µM.

Consider `COc1ccc(C(=O)c2cc(OC)c(OC)c(OC)c2)cc1OC(=O)CCl`, for which the GI50 is 33.8 nM and the TGI was 0.434 µM.

In the case of `CN[C@@H](C)C(=O)N[C@H](C(=O)N1CCC[C@H]1C(=O)Nc1snnc1-c1ccccc1)C1CCCCC1`, the GI50 is 16700 nM and the TGI was 33.9 µM.

`COc1ccc(/C(COc2ccc3c(=O)cc(-c4ccccc4)oc3c2)=N\O)cc1`: the GI50 is 9610 nM and the TGI was greater than 29.4 µM.

Turning to `CC(C)(C)OC(=O)N1CCN(CCn2cc(C(F)(F)F)c3c(Cl)ncnc32)CC1`, the GI50 was 4190 nM and the TGI came to 14.5 µM.

On to `FC(F)(F)c1ccc(Nc2nc(-c3c(C(F)(F)F)nc4ccccn34)cs2)cc1`, for which the GI50 is 35.8 nM and the TGI was found to be 1.49 µM.

For the compound `CN(C)CCN1C(=O)c2ccccc2N(C)c2ccccc21`, the GI50 was greater than 100000 nM and the TGI is greater than 100 µM.

Another assay has as its system SNB-75 CNS. In words: growth of human tumour cells (NCI), 48 h.
`COc1cc2ccc(/C=C\[N+](=O)[O-])cc2cc1OC` registered a TGI of 5.76 µM.

As to `CCN(CC)CCCC(C)Nc1ccnc2cc(Oc3ccccc3)ccc12` (stereo not given), the GI50 was 2.04 µM and 10.9 µM; the TGI is 15.1 µM and 25.4 µM.

As for `C=C1CCC2C3(C)COC(c4ccc(N(C)C)cc4)OC3CCC2(C)C1C/C=C1/C(=O)OCC1O` (stereo not given), the GI50 was 1.94 µM and the TGI came to 7.97 µM.

In turn, `COc1cc(OC(=O)c2ccccc2)cc2c1C(=O)C=CC2=O` had a TGI of 49.2 µM.

On to `CCN(CC)CCCCNc1c2ccccc2[n+](C)c2c1[nH]c1ccccc12`, for which the GI50 is 0.297 µM and the TGI is 1.27 µM.

For `COc1cc(NC(C)CCCNC2CN3CCC2CC3)c2ncccc2c1` (stereo not given), the GI50 was 7.07 µM and the TGI turned out to be 20.6 µM.

With `COc1ccc(C(=O)c2cc(OC)c(OC)c(OC)c2)cc1OC(=O)CCl`, the GI50 was 0.0257 µM and the TGI was greater than 100 µM.

As to `CN[C@@H](C)C(=O)N[C@H](C(=O)N1CCC[C@H]1C(=O)Nc1snnc1-c1ccccc1)C1CCCCC1`, the GI50 is 25.4 µM and the TGI was greater than 94.4 µM.

Turning to `COc1ccc(/C(COc2ccc3c(=O)cc(-c4ccccc4)oc3c2)=N\O)cc1`, the GI50 is greater than 31.8 µM and the TGI is greater than 45.9 µM.

In the case of `CC(C)(C)OC(=O)N1CCN(CCn2cc(C(F)(F)F)c3c(Cl)ncnc32)CC1`, the GI50 was 16.2 µM and the TGI is 32.9 µM.

With `FC(F)(F)c1ccc(Nc2nc(-c3c(C(F)(F)F)nc4ccccn34)cs2)cc1`, the GI50 was 0.0291 µM and the TGI is 1.05 µM.

Turning to `CN(C)CCN1C(=O)c2ccccc2N(C)c2ccccc21`, the GI50 is greater than 100 µM and the TGI is greater than 100 µM.

Another assay concerns NCI-H460 lung. In words: growth of human tumour cells (NCI), 48 h.
Take `COc1cc2ccc(/C=C\[N+](=O)[O-])cc2cc1OC`: the TGI is greater than 56.4 µM.

As to `CCN(CC)CCCC(C)Nc1ccnc2cc(Oc3ccccc3)ccc12` (stereo not given), the GI50 is 9.21 µM and 12.6 µM; the TGI is 25.9 µM and 78.7 µM.

Turning to `C=C1CCC2C3(C)COC(c4ccc(N(C)C)cc4)OC3CCC2(C)C1C/C=C1/C(=O)OCC1O` (stereo not given), the GI50 was 4.1 µM and the TGI was determined as 16.5 µM.

As for `COc1cc(OC(=O)c2ccccc2)cc2c1C(=O)C=CC2=O`, the TGI was determined as 60.9 µM.

In the case of `CCN(CC)CCCCNc1c2ccccc2[n+](C)c2c1[nH]c1ccccc12`, the GI50 was 0.0837 µM and the TGI came to 2.27 µM.

As for `COc1cc(NC(C)CCCNC2CN3CCC2CC3)c2ncccc2c1` (stereo not given), the GI50 was 15.9 µM and the TGI turned out to be 32.3 µM.

In the case of `COc1ccc(C(=O)c2cc(OC)c(OC)c(OC)c2)cc1OC(=O)CCl`, the GI50 was 0.0399 µM and the TGI was greater than 100 µM.

For `CN[C@@H](C)C(=O)N[C@H](C(=O)N1CCC[C@H]1C(=O)Nc1snnc1-c1ccccc1)C1CCCCC1`, the GI50 was 58.1 µM and the TGI is greater than 100 µM.

In the case of `COc1ccc(/C(COc2ccc3c(=O)cc(-c4ccccc4)oc3c2)=N\O)cc1`, the GI50 is 13.3 µM and the TGI is greater than 50 µM.

As for `CC(C)(C)OC(=O)N1CCN(CCn2cc(C(F)(F)F)c3c(Cl)ncnc32)CC1`, the GI50 is 2.18 µM and the TGI came to 4.29 µM.

As for `FC(F)(F)c1ccc(Nc2nc(-c3c(C(F)(F)F)nc4ccccn34)cs2)cc1`, the GI50 was 0.0353 µM and the TGI worked out at 4.75 µM.

As to `CN(C)CCN1C(=O)c2ccccc2N(C)c2ccccc21`, the GI50 was greater than 100 µM and the TGI is greater than 100 µM.

(Values after PubChem BioAssay (NCI).)
